Reference: patent US20230251277A1, “METHOD FOR DETERMINING THE LEVEL OF VITAMIN D AND METABOLITES THEREOF” (Roche Diagnostics Operations, Inc., priority 2020, published 2023)
≈ marks a conversion by molar mass, not a printed value. Entries after “also recorded” stand apart in the source; their conditions may differ.

Experiments:
[1] = molecular target: T1, Vitamin D binding protein (Homo sapiens, UniProt P02774); assay: Screening of releasing reagent candidates: recovery of Vitamin D metabolites from spiked native serum pool (immunobead capture, LC-MS/MS); assay type: biochemical; design: native serum pool and homogenized; from tissue; host or cells: native serum pool (spiked with vitamin D metabolites); details: 45 µl pretreatment reagent at the concentration of the 1st table
T1 sequence (P02774 17-474): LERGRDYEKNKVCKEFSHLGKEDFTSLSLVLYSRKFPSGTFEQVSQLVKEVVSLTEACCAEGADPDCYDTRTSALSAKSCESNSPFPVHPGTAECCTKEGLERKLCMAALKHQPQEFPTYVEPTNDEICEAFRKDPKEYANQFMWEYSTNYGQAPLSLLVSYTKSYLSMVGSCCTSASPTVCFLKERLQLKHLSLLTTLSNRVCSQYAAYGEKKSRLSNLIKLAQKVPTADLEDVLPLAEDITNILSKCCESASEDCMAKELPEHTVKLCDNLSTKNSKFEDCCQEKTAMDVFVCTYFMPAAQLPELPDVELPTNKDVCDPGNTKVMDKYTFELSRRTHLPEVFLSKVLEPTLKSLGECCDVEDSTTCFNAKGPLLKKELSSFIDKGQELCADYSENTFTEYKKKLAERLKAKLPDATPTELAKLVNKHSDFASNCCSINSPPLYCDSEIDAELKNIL
Description: 0.30 ml di-OH Vitamin D stock solution ([…] 24R,25-di-OH Vitamin D3 and […] 24R,25-di-OH Vitamin D2 in methanol) and 0.55 ml mono-OH Vitamin D stock solution (10.00 µg/ml 25-OH Vitamin D3 and 10.00 µg/ml 25-OH Vitamin D2 in methanol) are added to 99.1 5 ml native serum pool and homogenized. Thus resulting concentrations in the spiked pool are: • 3.9 ng/ml 24R,25-di-OH Vitamin D3 • 6.0 ng/ml 24R,25-di-OH Vitamin D2 • 55.0 ng/ml 25-OH Vitamin D2 • 84.9 ng/ml 25-OH Vitamin D3 Endogenous amounts in the original native serum pool are taken into account.
Molar concentrations of the evaluated chemicals are:
10 µl Vitamin D free serum (representing ISTD dummy) are pipetted to 145 µl sample in a plastic vessel. After incubation with periodic shaking for 231 s at 37° C., 45 µl pretreatment reagent are added. Again, an incubation with periodic shaking for 640 s at 37° C. takes place. Therefore Vitamin D should be or is gently released from Vitamin D binding protein. In the next step 50 µl immunobead suspension are pipetted to the mixture. Again, an incubation with periodic shaking for 393 s at 37℃ takes place. After twofold bead wash using 0.01 M PBS and magnetic separation, 60 µl of the elution reagent water/methanol 2/8 (v/v) are added and a 40 s incubation period takes place. It is possible to transfer 40 µl supernatant in a HPLC glass vial while 20 µl have to remain in the vessel to avoid the carry-over of beads into the supernatant. In the final step 40 µl internal standard working solution are added to the supernatant and homogenized by means of sip and spit pipetting technique.
HPLC-MS/MS analysis is performed using a 1290 infinity Multisampler and a 1290 Inifinity LC System (Agilent Technologies, Santa Clara/USA) coupled to a Triple Quad 6500+ MS (Sciex, Darmstadt).
40 µl of each sample are injected on the analytical C18 column (50×2.1 mm, 2.6 µm, Hitachi, Tokio/Japan) in order to separate the analytes. This is realized with a flow rate of 1.0 ml/min and at a column temperature of 50° C. Separation of the analytes is achieved with the following gradient of 50 mM formic acid (A) and methanol (B): • 0.00 min: 80% […] • 0.70 min: 90% B • 0.75 min: 98% B • 1.70 min: 98% B • 1.80 min: 80% B • 2.40 min: 80% B
The coupled MS detector is operating in positive electrospray ionisation (ESI) mode. The Vitamin D analytes are detected using multi reaction monitoring (MRM) technique. Doing this two periods are applied: 0.00-0.60 min for measurement of 24R,25-di-OH Vitamin D2/D3 and 0.60-2.40 min for the detection of 25-OH Vitamin
Calibration is performed by means of LC-MS/MS of Vitamin D standards in solvent (60% MeOH) containing internal standards as concentrated as in the processed samples. For example, calibration levels for 25-OH Vitamin D3 are 2, 5, 10, 25, 50 and 100 ng/ml, while the concentration of 25-OH Vitamin D3 13C5 is set to 30 ng/ml.
Due to the fact that internal standard concentrations are identical both in calibrators and processed samples, it is possible to calculate recoveries for each analyte with the formula: […]
The results are shown in FIGS. 2 to 5 show the recovery of the releasing reagent candidates for 25-OH Vitamin D3 (FIG. 2), 25-OH Vitamin D2 (FIG. 3), 24R25-di-OH Vitamin D3 (FIG. 4) and 24R25-di-OH Vitamin D2 (FIG. 5).
Each error bar in FIGS. 2 and 5 is constructed using the min and the max. of the data.

[2] = physchem; details: aqueous with cosolvent or surfactant or cyclodextrin
[3] = Dynamic viscosity of the releasing reagent solution; assay type: physicochemical
[4] = molecular target: T1, Vitamin D binding protein; assay: Pretreatment optimization (design of experiments): 25-OH Vitamin D3 area ratio / analyte recovery in serum, plasma, Vitamin D free serum

Compound	recovery of Vitamin D metabolites (25-OH D3, 25-OH D2, 24R,25-di-OH D3, 24R,25-di-OH D2) ([1]; FIGS. 2 to 5)	solubility [2] [mM]	other results
O=C(O)c1cccc(O)c1 [PT5, 3-Hydroxybenzoic acid]	Highest recoveries	50 (≈ 6910 µg/mL)	
COC(=O)c1ccc(O)cc1 [PT14, Methyl-4-hydroxybenzoate]	Lowest recoveries		
Cc1cccc(C(=O)O)c1O [PT15, 3-Methylsalicylic acid]		10 (≈ 1520 µg/mL)	
O=C(O)c1ccccc1O [PT12, Salicylic acid, reference compound]		30 (≈ 4140 µg/mL)	
O=C(O)c1cc(-c2ccc(F)cc2F)ccc1O [PT18, Diflunisal, reference compound]		0.4 (≈ 100 µg/mL)	
COc1ccccc1C(=O)O [PT9, 2-Methoxy-benzoic acid]		30 (≈ 4560 µg/mL)	
Cc1ccc(C(=O)O)c(O)c1 [PT6, 4-Methylsalicylic acid]		20 (≈ 3040 µg/mL)	
N.O=C(O)c1ccccc1O [PT2, Ammonium Salicylate]	Highest recoveries	5600	
CCOC(=O)c1cc(OCC)ccc1O [PT19, Ethyl-5-ethoxy-2-hydroxybenzoate]		4 (≈ 841 µg/mL)	
O=C(Oc1ccccc1)c1ccccc1O [PT17, Phenyl Salicylate]		0.9 (≈ 193 µg/mL)	
O=C(O)c1ccc(O)c(C(=O)O)c1 [PT4, 4-Hydroxyisophthalic acid]		1 (≈ 182 µg/mL)	
COC(=O)c1ccc(O)cc1.[Na] [PT8, Methylparaben Sodium]	Lowest recoveries		
O=C(O)c1ccc(C(F)(F)F)cc1O [PT22, 2-Hydroxy-4-trifluoromethylbenzoic acid]		6 (≈ 1240 µg/mL)	
Cc1ccc(O)c(C(=O)O)c1 [PT13, 2-Hydroxy-5-methylbenzoic acid]		10 (≈ 1520 µg/mL)	
COC(=O)c1ccccc1O [PT16, Methyl Salicylate, reference compound]		10 (≈ 1520 µg/mL)	
O=C(OCCO)c1ccccc1O [PT3, Ethylen glycol monosalicylate]		50 (≈ 9110 µg/mL)	
O=C(O)c1cc(/N=N/c2ccc(S(=O)(=O)Nc3ccccn3)cc2)ccc1O [PT11, Sulfasalazine, reference compound]		9 (≈ 3590 µg/mL)	
CC(=O)Oc1ccccc1C(=O)O [PT10, Aspirin, reference compound]		10 (≈ 1800 µg/mL)	
O=C([O-])c1cccc(O)c1.[Na+] [PT20, 3-Hydroxybenzoic acid sodium salt]	Highest recoveries	2800	
O=C([O-])c1ccccc1O.[Na+] [PT1, Sodium Salicylate, reference compound]	Highest recoveries	5600	dynamic viscosity ([3]; at 6° C. for 5.6 M solution in 0.01 M PBS/methanol 9/1): 23 mPas; dynamic viscosity ([3]; at 6° C., (pre)treatment containing 5.6 M (PT1)): 23 mPa·s
Cc1cccc(C(=O)[O-])c1O.[Na+] [PT21, 3-Methyl Salicylic acid Sodium salt]			recovery of Vitamin D metabolites (25-OH D3, 25-OH D2, 24R,25-di-OH D3, 24R,25-di-OH D2) ([1]; FIGS. 2 to 5, Sodium salt): Highest recoveries; also recorded: highest analyte recovery; recovery of Vitamin D metabolites (25-OH D3, 25-OH D2, 24R,25-di-OH D3, 24R,25-di-OH D2) ([1]; FIGS. 2 to 5, listed as 3-methylsalicylic acid sodium salt, Sodium salt): highest analyte recovery; dynamic viscosity ([3]; at 6° C., 2.3 M dissolved in 35/65 MeOH/0.01 M PBS (v/v)): 8.3 mPa·s; Vitamin D release in a patient serum sample ([4]; 450 mM formic acid/0.7 M versus 0 mM formic acid/2.3 M): comparable Vitamin D release; analyte recovery compared with 5.6 M Salicylic acid sodium salt (PT1) ([4]; optimized pretreatment: 2.3 M, 35/65 (v/v) methanol/0.01 M PBS, 0% FA, Sodium salt): comparable to the recovery with salicylic acid sodium salt
O=C(O)c1ccc(O)cc1O [PT7, 2,4-Dihydroxybenzoic acid]	Highest recoveries	50 (≈ 7710 µg/mL)	
